Test results published in patent publication US11767298B2, “Substituted benzimidazoles as inhibitors of transforming growth factor-β kinase” (Duke University, priority 2016, dated 2023).
Entries after “also recorded” stand apart in the source; their conditions may differ.

Key:
MINK1 = MINK1 (Homo sapiens, UniProt Q8N4C8); test: Kinase profiling (Dundee), MINK1; type: biochemical; settings: 10 μM
Protocol: (§1) Kinase selectivity profiling. The selectivity profile of HS-206 to inhibit mammalian kinases was tested against a panel of 140 kinases at a single concentration of 10 μM. Tests were performed using a radiolabeld (^33P-ATP) filter-binding assay at the International Centre for Kinase Profiling at the University of Dundee, UK (http://www.kinase-screen.mrc.ac.uk/).
(§2) This panel contains members of all major kinase families, including tyrosine kinases (TK), tyrosine kinase-like (TKL), sterile serine/threonine (STE), and CDK/MAPK/GSK/CLK (CMGC). […] For these kinases, IC50 values were determined (Table 1).

[1] = system: TAK1 downstream signaling (IKK, p38) in MDA-MB-231 cells; test: TNFα dependent signaling in MDA-MB-231 cells; type: cell-based; settings: 10 μM, 2 h pretreatment, TNFα stimulation
Protocol: (§3) In order to investigate the effects of HS-206 on cellular signaling, MDA-MB-231 and Hela cells were pretreated with 10 μM HS-206 for 2 h and stimulated with TNFα (FIG. 8).

IRAK4 = IRAK4 (Homo sapiens, UniProt Q9NWZ3); test: Kinase profiling (Dundee), IRAK4; type: biochemical
Chain of IRAK4 (Q9NWZ3 whole entry): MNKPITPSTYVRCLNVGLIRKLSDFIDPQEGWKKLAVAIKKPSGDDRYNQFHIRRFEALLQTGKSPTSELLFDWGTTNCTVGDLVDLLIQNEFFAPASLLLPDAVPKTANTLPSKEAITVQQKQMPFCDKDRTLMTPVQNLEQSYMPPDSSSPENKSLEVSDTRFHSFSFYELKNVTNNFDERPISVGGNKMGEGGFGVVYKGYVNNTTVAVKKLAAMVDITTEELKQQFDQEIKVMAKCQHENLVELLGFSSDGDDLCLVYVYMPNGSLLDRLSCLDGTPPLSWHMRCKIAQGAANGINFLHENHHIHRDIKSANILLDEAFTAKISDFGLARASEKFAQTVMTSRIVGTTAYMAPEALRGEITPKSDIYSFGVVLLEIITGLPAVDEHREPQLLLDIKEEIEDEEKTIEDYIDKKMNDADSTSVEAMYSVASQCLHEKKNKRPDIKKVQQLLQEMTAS
Protocol: as §1, §2

ATP-binding proteins = test: ATP-beads off-target elution, HepG2 whole-cell lysates; settings: uninfected HepG2 lysate; compared to DMSO control
PfPK9 = test: UBC13 phosphorylation by PfPK9 (ADP luminescence assay); type: biochemical, P. falciparum; settings: compared to DMSO
Protocol: Recombinant protein expression and enzyme activity assay. Recombinant GST-tagged PfPK9 was expressed in E. coli BL21(DE3) cells, purified to homogeneity, and the GST tag was cleaved with PreScission Protease (GE Healthcare). To test for inhibition of PfPK9, the ADP detection assay ADP-Glo (Promega) was used to determine ATPase activity of PfPK9 in the presence of the PfUBC13 protein substrate when treated with compounds 1 and 5. Approximately 500 nM PfPK9 was incubated with either compound (10 μM or 500 μM) for 5 min at RT in buffer containing 40 mM Tris, pH 7.5, 20 mM MgCl2, 2 mM MnCl2 and 1 mM DTT prior to assay initiation with 100 μM ATP. The assay was performed in white low-volume 384-well plates (Corning #3824) in triplicate. The assay plate was sealed and subsequently incubated for 8 hrs at 37° C. before ADP detection per manufacturer instructions. The final assay volume was 5 μL with a final concentration of 1% DMSO. A negative control was performed in 1% DMSO and heat inactivated PfPK9 (80° C. for 5 min) was used as a positive control. The luminescence intensity in each well was measured on an EnVision system. Data were normalized to the average luminescence signal of the negative control to provide relative ADP concentrations and graphs were constructed in GraphPad Prism. Data analyses were conducted from three independent experiments. […]

TAK1 = TAK1 (Homo sapiens, UniProt O43318); test: Kinase profiling (Dundee), TAK1; type: biochemical
Chain of TAK1 (O43318 with tags, fused parts or gaps limits assumed): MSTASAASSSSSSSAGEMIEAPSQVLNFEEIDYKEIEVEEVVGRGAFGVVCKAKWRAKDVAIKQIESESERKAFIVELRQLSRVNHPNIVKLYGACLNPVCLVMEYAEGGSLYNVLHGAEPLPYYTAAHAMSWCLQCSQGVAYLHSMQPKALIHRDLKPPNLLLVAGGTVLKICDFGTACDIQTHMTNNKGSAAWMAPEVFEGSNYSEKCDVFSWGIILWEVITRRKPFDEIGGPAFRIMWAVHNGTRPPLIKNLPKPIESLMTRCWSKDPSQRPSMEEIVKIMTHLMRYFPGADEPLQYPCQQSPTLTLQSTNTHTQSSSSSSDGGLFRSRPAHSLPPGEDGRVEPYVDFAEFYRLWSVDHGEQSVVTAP
Protocol: as §1, §2

CLK2 = CLK2 (Homo sapiens, UniProt P49760); test: Kinase profiling (Dundee), CLK2; type: biochemical; settings: 10 μM
Chain of CLK2 (P49760 whole entry): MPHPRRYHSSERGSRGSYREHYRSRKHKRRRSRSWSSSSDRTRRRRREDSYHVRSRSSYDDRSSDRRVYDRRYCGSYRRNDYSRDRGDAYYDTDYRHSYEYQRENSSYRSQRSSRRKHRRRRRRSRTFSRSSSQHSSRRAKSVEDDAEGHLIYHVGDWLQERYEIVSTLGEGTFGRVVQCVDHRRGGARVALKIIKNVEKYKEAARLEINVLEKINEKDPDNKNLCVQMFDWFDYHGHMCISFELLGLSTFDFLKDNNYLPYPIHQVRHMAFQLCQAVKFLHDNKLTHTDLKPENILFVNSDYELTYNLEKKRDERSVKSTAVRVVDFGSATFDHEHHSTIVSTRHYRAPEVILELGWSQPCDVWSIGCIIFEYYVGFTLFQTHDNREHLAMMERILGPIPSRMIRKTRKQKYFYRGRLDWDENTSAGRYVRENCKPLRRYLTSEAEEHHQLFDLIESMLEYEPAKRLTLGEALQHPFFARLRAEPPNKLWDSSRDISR
Protocol: as §1, §2

P. berghei = test: Liver stage parasite load, luciferase-expressing P. berghei in HepG2 cells; type: cell-based, Plasmodium berghei ANKA; settings: HepG2 host cells
Protocol: Cell-based anti-Plasmodium assays. For liver stage assays, 15,000 HepG2 or 8,000 Huh7 cells/well were added to 384-well microtiter plates using a multichannel pipette (Rainin). After 2 hours at 37° C., compounds (0-100 μM) were added to cells in duplicate or triplicate in a final concentration of 1% DMSO. DMSO was used as the negative control. Following compound incubation at 37° C. for ˜1 hr, harvested luciferase-expressing P. berghei ANKA sporozoites were added to the plates at a density of 3,000 sporozoites/well. P. berghei ANKA sporozoites were obtained from harvesting the salivary glands of infected A. stephensi mosquitoes. The plates were spun for 10 min at 1,000 rpm, and then incubated at 37° C. for ˜45 hrs. […] After ˜45 hours at 37° C., liver cell viability was assessed using CellTiter-Fluor (Promega) and then parasite load was determined using Bright-Glo (Promega). The relative fluorescence and luminescence signal intensity of each well was evaluated with an EnVision System. The luminescence signal in the presence of compounds was normalized to the negative control (DMSO). Dose-response analysis was performed with GraphPad Prism to yield the reported EC50 values.
Anti-Plasmodium activity was evaluated in the parasite's liver stage using a previously reported high-throughput assay. In this assay, luciferase-expressing P. berghei (murine) parasites are used to infect human hepatoma cells (HepG2) and parasite load is assessed with a luminometer subsequent to evaluating HepG2 viability using a commercially available quantification kit that measures intracellular protease activity.
Specifically, their ability to inhibit P. berghei infection in two human hepatoma cell lines (HepG2 and Huh7) as well as cytotoxicity against HepG2 and Huh7 cells was determined as described above. Liver cell cytotoxicity was evaluated with two different commercially available assays, one that tests for intracellular protease activity with a fluorescence reporter and another that relies on the luminescent detection of total ATP.

[2] = system: TAK1 downstream signaling (IKK, p38, NFκB) in Hela cells; test: TNFα dependent signaling in Hela cells; type: cell-based
Protocol: as §3

60 cell lines (NCI-60) = test: NCI-60 Cell One-Dose Screen; type: cell-based; settings: 10 μM, 24 h
Protocol: In order to examine the effect of HS-206 on cell viability of different cancers, a screen of 60 cell lines was performed at the NCI, called the NCI-60 Cell One-Dose Screen. […] This screen determined growth inhibition as an effect of HS-206 treatment over a period of 24 h.

IRAK1 = IRAK1 (Homo sapiens, UniProt P51617); test: Kinase profiling (Dundee), IRAK1; type: biochemical
Chain of IRAK1 (P51617 whole entry): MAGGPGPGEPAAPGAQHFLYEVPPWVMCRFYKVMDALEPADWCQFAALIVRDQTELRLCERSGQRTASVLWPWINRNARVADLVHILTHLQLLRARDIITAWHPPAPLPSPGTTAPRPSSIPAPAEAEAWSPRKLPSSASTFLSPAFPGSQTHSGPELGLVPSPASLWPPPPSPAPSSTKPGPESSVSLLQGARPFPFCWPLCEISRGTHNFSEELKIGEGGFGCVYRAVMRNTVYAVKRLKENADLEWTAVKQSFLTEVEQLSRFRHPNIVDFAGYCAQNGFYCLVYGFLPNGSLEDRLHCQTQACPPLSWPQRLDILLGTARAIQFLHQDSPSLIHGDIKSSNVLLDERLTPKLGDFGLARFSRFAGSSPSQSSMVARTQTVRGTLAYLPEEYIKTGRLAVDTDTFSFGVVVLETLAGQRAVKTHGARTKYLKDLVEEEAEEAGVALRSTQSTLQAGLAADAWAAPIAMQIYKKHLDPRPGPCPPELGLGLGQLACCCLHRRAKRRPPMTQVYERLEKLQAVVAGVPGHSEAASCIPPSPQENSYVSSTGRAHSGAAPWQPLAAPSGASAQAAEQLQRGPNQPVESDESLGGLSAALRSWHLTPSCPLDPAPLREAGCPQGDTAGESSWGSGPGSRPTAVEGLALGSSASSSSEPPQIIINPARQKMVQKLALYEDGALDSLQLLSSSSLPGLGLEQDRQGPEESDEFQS
Protocol: as §1, §2

Chain of MINK1 (Q8N4C8 whole entry): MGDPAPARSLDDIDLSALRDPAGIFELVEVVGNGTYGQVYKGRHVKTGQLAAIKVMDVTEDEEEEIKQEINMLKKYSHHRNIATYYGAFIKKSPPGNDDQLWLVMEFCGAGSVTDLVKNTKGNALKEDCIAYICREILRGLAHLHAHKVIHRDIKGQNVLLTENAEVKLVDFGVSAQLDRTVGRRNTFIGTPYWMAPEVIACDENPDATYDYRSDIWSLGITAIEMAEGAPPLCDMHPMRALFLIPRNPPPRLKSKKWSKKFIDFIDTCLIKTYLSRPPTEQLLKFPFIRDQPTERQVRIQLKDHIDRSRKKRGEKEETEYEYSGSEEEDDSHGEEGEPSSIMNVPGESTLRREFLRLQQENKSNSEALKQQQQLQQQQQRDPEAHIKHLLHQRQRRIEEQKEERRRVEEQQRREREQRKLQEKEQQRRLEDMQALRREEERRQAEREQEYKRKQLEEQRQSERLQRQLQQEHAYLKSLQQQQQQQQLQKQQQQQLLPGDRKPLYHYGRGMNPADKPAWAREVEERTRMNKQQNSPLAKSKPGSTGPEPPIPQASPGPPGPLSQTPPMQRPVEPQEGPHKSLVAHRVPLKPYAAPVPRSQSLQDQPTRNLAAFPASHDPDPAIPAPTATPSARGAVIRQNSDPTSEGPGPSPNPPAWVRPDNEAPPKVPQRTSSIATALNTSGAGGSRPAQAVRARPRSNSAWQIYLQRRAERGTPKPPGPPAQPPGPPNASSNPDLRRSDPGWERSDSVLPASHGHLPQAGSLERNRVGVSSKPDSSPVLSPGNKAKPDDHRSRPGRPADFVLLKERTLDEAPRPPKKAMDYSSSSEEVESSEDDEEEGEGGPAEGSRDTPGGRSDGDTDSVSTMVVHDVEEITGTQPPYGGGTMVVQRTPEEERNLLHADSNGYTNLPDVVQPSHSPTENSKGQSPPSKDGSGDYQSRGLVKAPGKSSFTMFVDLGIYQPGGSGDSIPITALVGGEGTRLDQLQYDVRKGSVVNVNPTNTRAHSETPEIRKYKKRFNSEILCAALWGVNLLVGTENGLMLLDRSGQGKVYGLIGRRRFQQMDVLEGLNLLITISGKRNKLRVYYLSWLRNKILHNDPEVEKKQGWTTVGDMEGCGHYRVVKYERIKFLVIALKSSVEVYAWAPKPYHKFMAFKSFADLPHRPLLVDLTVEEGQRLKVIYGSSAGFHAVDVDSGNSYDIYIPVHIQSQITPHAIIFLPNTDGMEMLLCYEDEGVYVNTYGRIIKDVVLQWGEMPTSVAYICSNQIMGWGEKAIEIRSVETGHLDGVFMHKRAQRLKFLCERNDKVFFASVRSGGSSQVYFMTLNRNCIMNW

Question: Which inhibition at 10 µM (MINK1) does the source give for `CCCn1c(NC(=O)c2cccc(C(N)=O)c2)nc2ccccc21` [HS-206 (1), (E)-N-(1-Propyl-1,3-dihydro-2H-benzo[d]imidazol-2-ylidene)isophthalamide] here?
Answer: The inhibition at 10 µM was over 90%.

Question: What about the “TNFα dependent signaling (activation of IKK and p38)” value [1] of the same compound?
Answer: The value was “inhibited activation of IKK and p38; also recorded: inhibits TNFα dependent signaling”.

Question: And the IC50 (IRAK4)?
Answer: Its IC50 is 120 ± 30 nM.

Question: And the inhibition at 10 µM (IRAK4; 10 μM)?
Answer: The inhibition at 10 µM was over 90%.

Question: And the “elution of ATP-binding proteins from ATP-sepharose beads” value (ATP-binding proteins)?
Answer: Its value is “did not lead to any significant elution of ATP-binding proteins”.

Question: What about the “UBC13 phosphorylation by PfPK9” value (PfPK9) of the same compound?
Answer: The value was “significantly decreased”.

Question: And the IC50 (TAK1)?
Answer: Its IC50 is 9.5 ± 2 nM.

Question: What about the inhibition at 10 µM (TAK1; 10 μM) of the same compound?
Answer: The inhibition at 10 µM was over 90%.

Question: What about the inhibition at 10 µM (CLK2) of the same compound?
Answer: Its inhibition at 10 µM is over 90%.

Question: What about the IC50 (P. berghei; Plasmodium berghei, HepG2, parasite load) of the same compound?
Answer: The IC50 was about 7000 nM.

Question: What about the IC50 (P. berghei; parasite load) of the same compound?
Answer: The IC50 was 6600 nM.

Question: And the “TNFα dependent signaling (activation of IKK and p38)” value ([2]; 10 μM, 2 h pretreatment, TNFα stimulation)?
Answer: The value was “inhibited activation of IKK and p38; also recorded: inhibits TNFα dependent signaling”.

Question: What about the “dose-dependent inhibition of signaling upon TNFα stimulation” value ([2]; Hela cells) of the same compound?
Answer: The value was “inhibits p38 and NFκB signaling in a dose-dependent manner; also recorded: dose-dependent inhibition of JNK and NFκB signaling”.

Question: And the “growth inhibition, one-dose screen” value (60 cell lines (NCI-60); colorectal (KM12), leukemia (HL-60), non-small cell lung cancer (NCI-H522))?
Answer: Its value is “most affected”.

Question: And the “growth inhibition, one-dose screen” value (60 cell lines (NCI-60); melanoma (M14), renal (786-0), ovarian cancer (Ovcar-3))?
Answer: Its value is “little effect”.

Question: What about the IC50 (IRAK1) of the same compound?
Answer: The IC50 was 390 ± 50 nM.

Question: What about the inhibition at 10 µM (IRAK1; 10 μM) of the same compound?
Answer: Its inhibition at 10 µM is over 90%.
